No end group written: not given here.
Assays:
[1] = test system: HT-29 (human colon adenocarcinoma); experiment: Apoptosis assay, HT-29 cells; details: for apoptotic activity / morphology (in words): 5 μM, 4 hours
Description: Prostate cancer cell line LNCAP was routinely used for the isolation of Apogen P-1 and Apogen P-2, whereas leukemia cell line HL-60 was used for the isolation of Apogen L. The methods of assays were as follows: LNCAP or HL-60 (1,000 cells) was seeded in 10 microliters RPMI containing 15% or 20% Fetal bovine serum, penicillin and streptomycin at 37 degrees, 5% CO2 in Microtray plates (25 μl wells, Robbins Scientific Corp.). The tested sample (10 μl) was added 3-4 hours after cells were seeded. After incubation of the tested sample with cells for 15 hours, two microliters of Hoechst dye (0.03 ng/ml in PBS) was added. Two hours later, cells that were stained with Hoechst dye were examined under fluorescence microscope. […] The percentage of apoptotic cells was calculated by the following equation:
The DNA condensation, DNA fragmentation and peripheral crescents of the nuclei are characteristics of a cell under apoptosis.

cancer cell lines = experiment: Apoptosis assay, cancer cells (cell line not given); type: cell-based
[2] = test system: LNCaP (prostate cancer) cells; experiment: Cell death (apoptosis) assay, LNCaP cells; type: cell-based, human; details: for apoptotic activity / membrane blebbing (in words): chemically synthesized peptide, three (3) hours of incubation
Description: […] The free Zinc Acetate and Barium Acetate were removed by repetitive concentration. Fetuin was tested in LNCaP and HL-60 cells. […] Fetuin (in 10 μl PBS) at concentration of 100 ng/ml was added 3-4 hours after the cells were seeded.

[3] = test system: CCD-18 Co (human normal colon fibroblast); experiment: Apoptosis assay, CCD-18 Co cells; type: cell-based; details: various concentrations of SEQ ID NO: 1
From the text: Zinc charged alpha 1-acid glycoprotein has no effect on CCD 18Co cells (human normal colon fibroblast).

[4] = test system: tumor cell line P388D1 (leukemia); experiment: Effect of fetal fetuin on leukemia-bearing mice; type: in vivo, DBA/2 female mice
Description: Forty DBA/2 female mice (17-20 grams; Simonsen Laboratories, Inc., Gilroy, Calif.) kept on a standard diet and water ad libitum were inoculated with tumor cell line P388D1 (ATCC cell line number CCL46). The mice were randomly segregated into groups of ten (10). Zinc-charged fetal fetuin (10 mg/ml) were intraperitoneally injected into group I at 0.002 ml/mouse, group II at 0.02 ml/mouse and group III at 0.2 ml/mouse. Group IV was the control group, which was injected with 0.5 ml of saline solution. The injections were continued for 10 days. Mortalities were recorded for 60 days. The results were expressed as the percentage increase in life span (ILS): […]

HL-60 (leukemia) cells = experiment: Cell death (apoptosis) assay, HL-60 cells; type: cell-based, human; details: peptide fragment: 6 hours
Description: Fetuin purified from fetal bovine serum by the procedure described above was dissolved in phosphate buffer saline (PBS). The free Zinc Acetate and Barium Acetate were removed by repetitive concentration. Fetuin was tested in LNCaP and HL-60 cells. […] Fetuin (in 10 μl PBS) at concentration of 100 ng/ml was added 3-4 hours after the cells were seeded.

Hep G2 (Human hepatoma) = experiment: Apoptosis assay, Hep G2 cells
[5] = test system: Calu-1 (human lung carcinoma); experiment: Apoptosis assay, Calu-1 cells; type: cell-based; details: peptide fragment: 6 hours
[6] = test system: p3HR-1 (human Burkitt lymphoma); experiment: Apoptosis assay, p3HR-1 cells; type: cell-based; details: peptide fragment: 6 hours
[7] = various concentrations of SEQ ID NO: 1

alpha 1-acid glycoprotein (without zinc): alpha 1-acid glycoprotein pre-incubated with EDTA without recharging with zinc [reference compound]
apoptotic activity / morphology (in words) [1]: no apoptotic activity was seen | induction of apoptosis in cancer/tumor cell lines (in words) (cancer cell lines): failed to induce apoptosis

S-A-S-G-E-A-F-H (SASGEAFH; Polypeptide fragment from treatment of fetuin from bovine sera as described in the specification.) [SEQ ID NO: 2, chemically synthesized bovine fetuin fragment, amino acid no; 310-317]
apoptotic activity / membrane blebbing (in words) [2]: did not show any apoptotic activity

alpha 1-acid glycoprotein purchased from Sigma, after zinc charging: commercial alpha 1-acid glycoprotein after zinc charging
induction of apoptosis in cancer/tumor cell lines (in words) (cancer cell lines): contained the same activity

HTFSGVASVE [SEQ ID NO: 1, H-T-F-S-G-V-A-S-V-E]
induction of apoptosis (in words) [3]: without affecting | apoptotic activity / membrane blebbing (in words) [2]: caused membrane “blebbing” | potency relative to fetuin prepared from other methods ([2]; estimate): several thousand times | potency relative to Supercharged Zinc Fetuin ([2]; estimate, see FIG. 13): eight to ten times | induction of apoptosis (in words) [2, 7]: induced apoptosis | induced apoptosis ([1]; 0.4 μM, four (4) hours): 52% | cells induced to apoptosis (in words) ([1]; 0.4 μM, six (6) hours): almost all | induction of apoptosis (in words) [1, 7]: induced apoptosis

fetal fetuin: Zinc-charged fetal fetuin (10 mg/ml) injected intraperitoneally into mice
mice that survived more than 58 days ([4]; 100 mg/Kg intraperitoneally for 10 days, untreated 100% dead after 24 days): 80% | increased life span (ILS) ([4]; leukemia-bearing mice treated with fetal fetuin): 141%

calcium charged alpha 1-antitrypsin: alpha 1-antitrypsin pre-incubated with EDTA and recharged with calcium [reference compound]
apoptotic activity / morphology (in words) [1]: no apoptotic activity was seen

calcium charged alpha 1-acid glycoprotein: alpha 1-acid glycoprotein pre-incubated with EDTA and recharged with calcium [reference compound]
apoptotic activity / morphology (in words) [1]: no apoptotic activity was seen

alpha 1-antitrypsin (without zinc): alpha 1-antitrypsin pre-incubated with EDTA without recharging with zinc [reference compound]
apoptotic activity / morphology (in words) [1]: no apoptotic activity was seen | induction of apoptosis in cancer/tumor cell lines (in words) (cancer cell lines): failed to induce apoptosis

B1: alpha 2-HS glycoprotein (without zinc): alpha 2-HS glycoprotein pre-incubated with EDTA without recharging with zinc (protein, UniProt P02765 19-300; P02765 341-367, looked up)
Alpha-2-HS-glycoprotein chain … 1: APHGPGLIYRQPNCDDPETEEAALVAIDYINQNLPWGYKHTLNQIDEVKVWPQQPSGELFEIEIDTLETTCHVLDPTPVARCSVRQLKEHAVEGDCDFQLLKLDGKFSVVYAKCDSSPDSAEDVRKVCQDCPLLAPLNDTRVVHAAKAALAAFNAQNNGSNFQLEEISRAQLVPLPPSTYVEFTVSGTDCVAKEATEAAKCNLLAEKQYGFCKATLSEKLGGAEVAVTCMVFQTQPVSSQPQPEGANEAVPTPVVDPDAPPSPPLGAPGLPPAGSPPDSHVL
Alpha-2-HS-glycoprotein chain … 2: TVVQPSVGAAAGPVVPPCPGRIRHFKV
modifications: EDTA treated
notes: alpha 2-HS glycoprotein pre-incubated with EDTA without recharging with zinc
apoptotic activity / morphology (in words) [1]: no apoptotic activity was seen | induction of apoptosis in cancer/tumor cell lines (in words) (cancer cell lines): fails to induce apoptosis

B2: zinc charged alpha 2-HS glycoprotein: alpha 2-HS glycoprotein (Sigma), EDTA treated and charged with zinc acetate (protein, UniProt P02765 19-300; P02765 341-367, looked up)
Alpha-2-HS-glycoprotein chain … 1: B1 Alpha-2-HS-glycoprotein chain … 1
Alpha-2-HS-glycoprotein chain … 2: TVVQPSVGAAAGPVVPPCPGRIRHFKV
modifications: zinc charged
notes: alpha 2-HS glycoprotein (Sigma), EDTA treated and charged with zinc acetate
apoptotic activity, panel of cell lines (in words) (HL-60 (leukemia) cells): induced apoptosis | apoptotic activity, panel of cell lines (in words) (Hep G2 (Human hepatoma)): induced apoptosis | apoptotic activity, panel of cell lines (in words) [2]: induced apoptosis | apoptotic activity, panel of cell lines (in words) [5]: induced apoptosis | apoptotic activity, panel of cell lines (in words) [6]: induced apoptosis | apoptotic activity / morphology (in words) [1]: caused cell shrinkage and membrane blebbing | apoptotic activity, panel of cell lines (in words) ([1]; peptide fragment: 6 hours): induced apoptosis

B3: calcium charged alpha 2-HS glycoprotein: alpha 2-HS glycoprotein pre-incubated with EDTA and recharged with calcium (protein, UniProt P02765 19-300; P02765 341-367, looked up)
Alpha-2-HS-glycoprotein chain … 1: B1 Alpha-2-HS-glycoprotein chain … 1
Alpha-2-HS-glycoprotein chain … 2: TVVQPSVGAAAGPVVPPCPGRIRHFKV
modifications: calcium charged
apoptotic activity / morphology (in words) [1]: no apoptotic activity was seen

B4: Fetuin purchased from Sigma: commercial fetuin prepared by ammonium sulfate precipitation and EDTA treatment (protein, UniProt P12763 19-359, looked up)
Alpha-2-HS-glycoprotein: IPLDPVAGYKEPACDDPDTEQAALAAVDYINKHLPRGYKHTLNQIDSVKVWPRRPTGEVYDIEIDTLETTCHVLDPTPLANCSVRQQTQHAVEGDCDIHVLKQDGQFSVLFTKCDSSPDSAEDVRKLCPDCPLLAPLNDSRVVHAVEVALATFNAESNGSYLQLVEISRAQFVPLPVSVSVEFAVAATDCIAKEVVDPTKCNLLAEKQYGFCKGSVIQKALGGEDVRVTCTLFQTQPVIPQPQPDGAEAEAPSAVPDAAGPTPSAAGPPVASVVVGPSVVAVPLPLHRAHYDLRHTFSGVASVESSSGEAFHVGKTPIVGQPSIPGGPVRLCPGRIRYFKI
concentration at which apoptosis inducing activity was observed ([2]; long incubation time (2 days)): > 250 µg/mL | concentration at which apoptosis was induced ([2]; long incubation time (2 days)): > 5 mM | induction of apoptosis in cancer/tumor cell lines (in words) (cancer cell lines): very low activity

B5: Fetuin-Ca: fetuin bound with calcium (protein, UniProt P12763 19-359, looked up)
Alpha-2-HS-glycoprotein: B4 Alpha-2-HS-glycoprotein
modifications: calcium bound
induction of apoptosis in cancer/tumor cell lines (in words) (cancer cell lines): inactive in inducing apoptosis

B6: natural fetuin: natural fetuin whose carbohydrate moiety was removed by certain enzymes (protein, UniProt P12763 19-359, looked up)
Alpha-2-HS-glycoprotein: B4 Alpha-2-HS-glycoprotein
modifications: deglycosylated
notes: natural fetuin whose carbohydrate moiety was removed by certain enzymes
boost of apoptotic inducing activity when carbohydrate moiety removed by certain enzymes (cancer cell lines): 2-3 fold

B7: supercharged zinc fetuin: Section 4A fetuin stripped of ions with EDTA and reloaded with 0.5 M Zinc Acetate (protein, UniProt P12763 19-359, looked up)
Alpha-2-HS-glycoprotein: B4 Alpha-2-HS-glycoprotein
modifications: zinc charged
notes: Section 4A fetuin stripped of ions with EDTA and reloaded with 0.5 M Zinc Acetate
enhancement of ability to induce apoptosis versus original fetuin bound with zinc (Section 4A) ([2]; from LD50 on LNCaP cells incubated for 6 hours): three to four times

B8: E. Coli-expressed fetuin: recombinant bovine fetuin expressed in E. Coli (protein, UniProt P12763 19-359, looked up)
Alpha-2-HS-glycoprotein: B4 Alpha-2-HS-glycoprotein
modifications: expressed in E. coli
apoptotic activity relative to supercharged zinc fetuin (Section 4F) (cancer cell lines): about 5 times
